For 20 compounds, IC50, EC50 and inhibition results are on record in patent publication US9018214B2, “Bicyclic heterocycle compounds and their uses in therapy” (Astex Therapeutics Limited, priority 2011, dated 2015).

In test [1] the target is BIR3 domain of human cIAP-1 (residues 267-363) (Homo sapiens (Human), UniProt Q13490). The test can be described thus: cIAP-1 in vitro competitive displacement binding assay (fluorescence polarization; Probe A AVPIK(5&6FAM)-amide or Probe B AbuRPFK(5&6FAM)-amide). In general terms: Polarisation of emitted light reports the rotation of a fluorescent probe.
Test [2] has as its target BIR3 domain of human XIAP (residues 252-350) (Homo sapiens (Human), UniProt P98170). The test can be described thus: XIAP in vitro competitive displacement binding assay (fluorescence polarization). The conditions noted are these: read-out: IC50 or PI Xiap: IC50.
Test [3] has as its system EVSA-T (human breast carcinoma). The test can be described thus: Anti-proliferative activity, Alamar Blue assay, EVSA-T. It counts as cell-based. The conditions noted are these: Homo sapiens; for inhibition at 10 µM: read-out: EVSA-T prolif: % inhibition.
The mark [4] stands for this setting: Probe B AbuRPFK(5&6FAM)-amide, read-out: IC50 or PI cIAP1: IC50.
Setting [5] is: EVSA-T, 72 hours, Alamar Blue, read-out: EVSA-T prolif (EC50).
The mark [6] stands for this setting: read-out: IC50 or PI cIAP1: IC50.
Setting [7] is: EVSA-T cell line, 72 hours, Alamar Blue, read-out: EC50, inhibition of cell growth.
[8] abbreviates: EVSA-T, 72 h, read-out: EVSA-T prolif (EC50).
[9] abbreviates: EVSA-T, 72 h, read-out: EC50, inhibition of cell growth.

The term IC50 denotes the midpoint of a concentration-inhibition curve. The EC50 is the midpoint of the concentration-response curve.

Structures can show the parent of a compound that is named as a salt. Where two headings read alike, the source gives them in different places.

`CC(=O)NC[C@H]1CN[C@H](C)CN1CC(=O)N1CC(C)(C)c2ccc(Cl)cc21` [Example 45, N-{(2R,5R)-1-[2-(6-Chloro-3,3-dimethyl-2,3-dihydro-indol-1-yl)-2-oxo-ethyl]-5-methyl-piperazin-2-ylmethyl}-acetamide hydrochloride salt]: the figures for the IC50 in test [1] (setting [4]) and in test [2] were 580 nM and 1100 nM, respectively. Besides, the half-maximal effective concentration (EC50) in test [3] (setting [5]) is 5200 nM.

For the compound `C[C@@H]1CN(CC(=O)N2CC(C)(C)c3cc(F)c(S(=O)(=O)N4CCCC4)cc32)CCN1` [Example 49, 1-[5-Fluoro-3,3-dimethyl-6-(pyrrolidine-1-sulfonyl)-2,3-dihydro-indol-1-yl]-2-((R)-3-methyl-piperazin-1-yl)-ethanone dihydrochloride salt], the IC50 in test [1] (setting [6]) was 4100 nM; in test [2] it was 640 nM. The inhibition at 10 µM in test [3] (EVSA-T) worked out at 2%.

Regarding `CNC(=O)[C@H]1CN[C@H](C)CN1CC(=O)N1CC(C)(C)c2cc(F)c(S(=O)(=O)c3ccccc3)cc21` [Example 56, (2R,5R)-1-[2-(6-Benzenesulfonyl-5-fluoro-3,3-dimethyl-2,3-dihydro-indol-1-yl)-2-oxo-ethyl]-5-methyl-piperazine-2-carboxylic acid methylamide hydrochloride salt], the IC50 in test [1] was < 1000 nM; in test [1] (setting [4]), 130 nM; in test [2], 110 nM. The EC50 in test [3] (setting [7]) is < 10000 nM; in test [3] (setting [5]) it was 2300 nM.

As to `CCS(=O)(=O)c1ccc2c(c1)N(C(=O)CN1C[C@@H](C)NC[C@@H]1COC)CC2(C)C` [Example 59, 1-(6-Ethane-sulfonyl-3,3-dimethyl-2,3-dihydro-indol-1-yl)-2-((2R,5R)-2-methoxymethyl-5-methyl-piperazin-1-yl)-ethanone dihydrochloride salt], the results for the 50% inhibitory concentration (IC50) in test [1] (setting [6]) and in test [2] were 500 nM and 310 nM, respectively. For the same compound, the EC50 in test [3] (setting [8]) is 9700 nM.

With `CNS(=O)(=O)c1ccc2c(c1)N(C(=O)CN1C[C@@H](C)NC[C@@H]1COC)CC2(C)C` [Example 61, 1-[2-((2R,5R)-2-Methoxymethyl-5-methyl-piperazin-1-yl)-acetyl]-3,3-dimethyl-2,3-dihydro-1H-indole-6-sulfonic acid methylamide dihydrochloride salt], the concentration for half-maximal inhibition (IC50) in test [1] (setting [6]) was 1600 nM; in test [2], 220 nM. In addition, in test [3] (EVSA-T), the inhibition at 10 µM came to 0%.

Take `COC[C@H]1CN[C@H](C)CN1CC(=O)N1CC(C)(C)c2ccc(S(=O)(=O)N(C)C)cc21` [Example 68, 1-[2-((2R,5R)-2-Methoxymethyl-5-methyl-piperazin-1-yl)-acetyl]-3,3-dimethyl-2,3-dihydro-1H-indole-6-sulfonic acid dimethylamide dihydrochloride salt]: the 50% inhibitory concentration (IC50) in test [1] (setting [6]) came out at 1200 nM; in test [2] it was 230 nM. In addition, the EC50 is < 10000 nM in test [3] (setting [9]) and 6400 nM in test [3] (setting [8]).

`COC[C@H]1CN[C@H](C)CN1CC(=O)N1CC(C)(C)c2ccc(S(=O)(=O)NC(C)C)cc21` [Example 69, 1-[2-((2R,5R)-2-Methoxymethyl-5-methyl-piperazin-1-yl)-acetyl]-3,3-dimethyl-2,3-dihydro-1H-indole-6-sulfonic acid isopropylamide dihydrochloride salt]: the IC50 in test [1] (setting [6]) was 1400 nM; in test [2] it was 280 nM. The inhibition at 10 µM in test [3] (EVSA-T) was 54%.

Take `COC[C@H]1CN[C@H](C)CN1CC(=O)N1CC(C)(C)c2ccc(S(=O)(=O)Cc3ccccc3)cc21` [Example 70, 1-(3,3-Dimethyl-6-phenylmethane-sulfonyl-2,3-dihydro-indol-1-yl)-2-((2R,5R)-2-methoxymethyl-5-methyl-piperazin-1-yl)-ethanone dihydrochloride salt]: the IC50 is 820 nM in test [1] (setting [6]) and 380 nM in test [2]. For the same compound, the figures for the EC50 in test [3] (setting [9]) and in test [3] (setting [8]) were < 10000 nM and 7900 nM, respectively.

As to `COC[C@H]1CN[C@H](C)CN1CC(=O)N1CC2(CN(C(C)=O)C2)c2ccc(Cl)cc21` [Example 71, 1-{1-Acetyl-6′-chloro-1′,2′-dihydrospiro[azetidine-3,3′-indole]-1′-yl}-2-[(2R,5R)-2-(methoxymethyl)-5-methylpiperazin-1-yl]ethan-1-one hydrochloride salt], the half-maximal inhibitory concentration (IC50) in test [1] (setting [4]) amounted to 540 nM; in test [2] it was 490 nM. Further, the results for the concentration giving a half-maximal response (EC50) in test [3] (setting [7]) and in test [3] (setting [5]) were < 10000 nM and 7700 nM, respectively.

Consider `COC[C@H]1CN[C@H](C)CN1CC(=O)N1CC(C)(C)c2cnc(Oc3ccccc3)cc21` [Example 74, 1-(3,3-Dimethyl-6-phenoxy-2,3-dihydro-pyrrolo[3,2-c]pyridin-1-yl)-2-((2R,5R)-2-methoxymethyl-5-methyl-piperazin-1-yl)-ethanone hydrochloride salt], for which the concentration for half-maximal inhibition (IC50) in test [1] (setting [4]) was 99 nM; in test [2], 390 nM. Also, the 50% effective concentration (EC50) in test [3] (setting [5]) turned out to be 560 nM.

`COC[C@H]1CN[C@H](C)CN1CC(=O)N1CC2(CN(C(C)=O)C2)c2ccc(Cc3ccccc3)cc21` [Example 76, 1-{1-Acetyl-6′-benzyl-1′,2′-dihydrospiro[azetidine-3,3′-indole]-1′-yl}-2-[(2R,5R)-2-(methoxymethyl)-5-methylpiperazin-1-yl]ethan-1-one hydrochloride salt]: the IC50 in test [1] (setting [4]) was 16 nM; in test [2], 64 nM. In addition, the EC50 in test [3] (setting [5]) was 780 nM.

`COC[C@H]1CN[C@H](C)CN1CC(=O)N1CC(C)(C)c2cnc(Cc3ccccc3F)cc21` [Example 77, 1-{6-[(2-Fluorophenyl)methyl]-3,3-dimethyl-1H,2H,3H-pyrrolo[3,2-c]pyridin-1-yl}-2-[(2R,5R)-2-(methoxy-methyl)-5-methyl-piperazin-1-yl]ethan-1-one]: the IC50 in test [1] (setting [4]) was 9 nM; in test [2] it was 170 nM. In addition, the half-maximal effective concentration (EC50) in test [3] (setting [5]) is 160 nM.

`COC[C@H]1CN[C@H](C)CN1CC(=O)N1CC(C)(C)c2cnc(Cc3ccccc3Cl)cc21` [Example 78, 1-{6-[(2-Chlorophenyl)methyl]-3,3-dimethyl-1H,2H,3H-pyrrolo[3,2-c]pyridin-1-yl}-2-[(2R,5R)-2-(methoxy-methyl)-5-methyl-piperazin-1-yl]ethan-1-one hydrochloride salt]: the IC50 in test [1] (setting [4]) worked out at 35 nM; in test [2], 530 nM. In test [3] (setting [5]), the EC50 is 1900 nM.

For the compound `COC[C@H]1CN[C@H](C)CN1CC(=O)N1CC(C)(C)c2cnc(CC3CCCCC3)cc21` [Example 79, 1-[6-(Cyclohexylmethyl)-3,3-dimethyl-1H,2H,3H-pyrrolo[3,2-c]pyridin-1-yl]-2-[(2R,5R)-2-(methoxymethyl)-5-methylpiperazin-1-yl]ethan-1-one], the IC50 in test [1] (setting [6]) was found to be 25 nM; in test [2] it was 1000 nM. Moreover, in test [3] (setting [5]), the EC50 came out at 490 nM.

For the compound `COC[C@H]1CN[C@H](C)CN1CC(=O)N1CC(C)(C)c2cnc(Cc3cccc(Cl)c3)cc21` [Example 86, 1-{6-[(3-Chlorophenyl)methyl]-3,3-dimethyl-1H,2H,3H-pyrrolo[3,2-c]pyridin-1-yl}-2-[(2R,5R)-2-(methoxymethyl)-5-methylpiperazin-1-yl]ethan-1-one, hydrochloride salt], the IC50 in test [1] is < 1000 nM; in test [1] (setting [4]), 12 nM; in test [2] it was 290 nM. The concentration giving a half-maximal response (EC50) in test [3] (setting [5]) was determined as 310 nM.

On to `COC[C@H]1CN[C@H](C)CN1CC(=O)N1CC(C)(C)c2cnc(C(C)c3ccccc3)cc21` (stereo partly drawn) [Example 87, 1-[3,3-Dimethyl-6-(1-phenylethyl)-1H,2H,3H-pyrrolo[3,2-c]pyridin-1-yl]-2-[(2R,5R)-2-(methoxymethyl)-5-methylpiperazin-1-yl]ethan-1-one, hydrochloride salt], for which the values for the IC50 in test [1], in test [1] (setting [4]) and in test [2] were < 1000 nM, 24 nM and 240 nM, respectively. Besides, the concentration giving a half-maximal response (EC50) in test [3] (setting [5]) was 510 nM.

For `COC[C@H]1CN[C@H](C)CN1CC(=O)N1CC(C)(C)c2cnc(Cc3ccc(F)cc3)cc21` [Example 88, 1-{6-[(4-Fluoro-phenyl)methyl]-3,3-dimethyl-1H,2H,3H-pyrrolo[3,2-c]pyridin-1-yl}-2-[(2R,5R)-2-(methoxy-methyl)-5-methyl-piperazin-1-yl]ethan-1-one, hydrochloride salt], the inhibition at 0.01 µM in test [1] (3 h, Probe B, @ 0.01 μM, read-out: IC50 or PI cIAP1: PI) stood at 84%. In test [2], the IC50 is 170 nM. In test [3] (setting [5]), the EC50 was 40 nM.

In the case of `COC[C@H]1CN[C@H](C)CN1CC(=O)N1CC(C)(C)c2cnc(C3=CCCC3)cc21` [Example 90, 1-[6-(Cyclopent-1-en-1-yl)-3,3-dimethyl-1H,2H,3H-pyrrolo[3,2-c]pyridin-1-yl]-2-[(2R,5R)-2-(methoxymethyl)-5-methylpiperazin-1-yl]ethan-1-one, hydrochloride salt], the IC50 amounted to 79 nM in test [1] (setting [4]) and 270 nM in test [2]. Besides, in test [3] (setting [5]), the EC50 was found to be 330 nM.

For `CC[C@H]1CN[C@H](C)CN1CC(=O)N1CC(C)(C)c2cnc(Cc3ccccc3)cc21` [Example 91, 1-{6-Benzyl-3,3-dimethyl-1H,2H,3H-pyrrolo[3,2-c]pyridin-1-yl}-2-[(2S,5R)-2-ethyl-5-methylpiperazin-1-yl]ethan-1-one, hydrochloride salt], the results for the IC50 in test [1] (setting [4]) and in test [2] were 19 nM and 290 nM, respectively. For the same compound, the half-maximal effective concentration (EC50) in test [3] (setting [5]) turned out to be 200 nM.

In the case of `COC[C@H]1CN[C@H](C)CN1CC(=O)N1CC(C)(C)c2cnc(C3CCCC3)cc21` [Example 92, 1-{6-Cyclopentyl-3,3-dimethyl-1H,2H,3H-pyrrolo[3,2-c]pyridin-1-yl}-2-[(2R,5R)-2-(methoxymethyl)-5-methylpiperazin-1-yl]ethan-1-one, hydrochloride salt], the IC50 in test [1] (setting [4]) was found to be 270 nM; in test [2] it was 1200 nM. Moreover, the EC50 in test [3] (setting [5]) was 4800 nM.
